The subject of this assay is persistent post-viral cough. In words: Treatment of patients with persistent post-viral cough (case reports and the inventors' clinical experience). The class given is in vivo, human. From the text:
As opposed to what is found in the medical literature, in the usual patient that we have observed and treated for sub-acute or chronic cough after viral respiratory infection, evidence for post-nasal drip, sinusitis, asthma, or gastroesophageal reflux has been lacking. Physical examination of the nose, throat, sinuses, and chest has been unremarkable as have chest x-ray, and simple pulmonary function tests. Antihistamines and decongestants as might be used for post-nasal drip have proven disappointing and have rarely afforded relief of the persistent cough when tried. Antibiotic treatments likewise have been effective to alleviate cough only in rare instances. […] We have been surprised by the regularity with which this treatment has proven effective.
Because the respiratory tract is a continuous conduit, topical medications can be applied to the airways surface in aerosol form. The term “aerosol” as used herein is as conventionally defined to indicate either a liquid or solid particle suspended in gas. Many chemical entities in aerosol delivery devices, both liquid and solid, have been developed and marketed for treating respiratory disorders. These include aerosol medications for application to the nose or for inhalation through the mouth. We have utilized a variety of inhaled topical corticosteroid aerosols to treat persistent post-viral cough and have found them all to be generally effective. The following are two examples of aerosols and regimens that we have found effective: • Beclovent Inhalation Aerosol (beclomethasone diprroprionate, USP): two to three sprays t.i.d. for six days. • Pulmicort Turbuhaler® 200 mcg (budesonide powder): one spray t.i.d. for six days.
The inventors have improvised treatment for protracted post-viral cough in our patients by utilizing commercially available multi-dose corticosteroid aerosol inhalers that are not indicated for that purpose. These typically provide enough chemical agent for a 29-30 day period. They are neither labeled for short-term use or for treatment of post-viral cough. While we have not encountered medicinal side effects in our treated patients, a general principal of pharmacologic treatment is to avoid overuse of medication. The desirability to minimize treatment and minimize the use of corticosteroids in particular is well recognized. On occasion, the inventors have utilized smaller size inhaler samples with fewer dosing actuations that have been available through the courtesy of pharmaceutical representatives. Although less consistently available, the devices with lesser number of actuations are considered preferable to prevent inadvertent or purposeful overuse of medication. An aerosol device containing a corticosteroid agent for treatment of about two weeks or less is preferred, and about 7 days is most preferred. It is to be noted that, lacking labeling, no inhaled corticosteroid aerosol used experimentally by the inventors comprises a “drug” to treat the persistent post-viral cough patients as herein described.
The following case reports further exemplify the present invention: • 1. A person with no previous respiratory history had initial symptoms consisting of nasal congestion, rhinorrhea, post-nasal drip, and dry cough. All symptoms but cough resolved within two week and dry cough persisted for 28 days from onset.
We have likewise found prompt response to a short course treatment of inhaled corticosteroid in these individuals, for example: […]

`C[C@H]1C[C@H]2[C@@H]3CCC4=CC(=O)C=C[C@]4(C)[C@@]3(Cl)[C@@H](O)C[C@]2(C)[C@@]1(O)C(=O)CO` [Beclomethasone MDI, Beclomethasone]: the “subsequent resolution of cough” value (case 1: 2 sprays (40 mcg@) tid for six days, after one week) is listed as “complete resolution”. Also, the recurrence of cough entry is “did not reoccur” (case 1: 2 sprays (40 mcg@) tid for six days, no further medication required); “no recurrence of cough” (case 2: 2 sprays (40 mcg@) tid for five days); “no recurrence” (case 3: 2 sprays (40 mcg@) tid for five days); “did not reoccur” (case 4: 2 sprays (40 mcg@) tid for ten days). Besides, the “improvement of cough at one week” value (case 1: dry cough for 28 days, 2 sprays (40 mcg@) tid for six days, slight residual in AM) is “significant improvement of cough”. The resolution of cough entry is, setting by setting: (case 2: cough for 25 days, 2 sprays (40 mcg@) tid for five days) “complete resolution of cough”; (case 3: severe dry cough for 22 days, 2 sprays (40 mcg@) tid for five days) “complete resolution of cough”; (case 4: severe dry cough for 6 weeks, 2 sprays (40 mcg@) tid for ten days) “complete resolution of cough”.
As for `CC[C@H]1OC(=O)[C@H](C)[C@@H](O[C@H]2C[C@@](C)(OC)[C@@H](O)[C@H](C)O2)[C@H](C)[C@@H](O[C@@H]2O[C@H](C)C[C@H](N(C)C)[C@H]2O)[C@](C)(O)C[C@@H](C)CN(C)[C@H](C)[C@@H](O)[C@]1(C)O` [azithromycin], the resolution of symptoms entry (case 2: five-day course, 500 mg per day, initial cold symptoms with productive cough) is reported as “all symptoms resolved with the exception of a non-productive “tickling” cough”. In addition, the improvement of cough entry (case 4: 500 mg per day for five days) is “without improvement of the cough”.
